Test results published in patent publication US11813340B2, “PSMA targeted radiohalogenated urea-polyaminocarboxylates for cancer radiotherapy” (The Johns Hopkins University, priority 2018, dated 2023).
Read-outs that look alike come from different tables or passages of the source.

What was measured:
[1] = tested on: PSMA+PC3-PIP and PSMA-PC3-flu flank xenografts; assay: Biodistribution of [125I/211At]2 and 3 with and without co-injection of DCIBzL (Example 6); format: in vivo, athymic mice
From the text: Final compounds were purified by HPLC.

[2] = tested on: PSMA + PC3-PIP and PSMA-PC3-flu flank xenografts; details: for Biodistribution, Blood / Biodistribution, Flu tumor / Biodistribution, Kidneys / Biodistribution, Lacrimal glands / Biodistribution, Pip (tumor) / Biodistribution, Salivary glands / Biodistribution, Spleen / Biodistribution, Stomach: without cold blocking agent
Description: Final compounds were purified by HPLC. […] Organs were harvested 1, 4, and 24 h post-injection (n=5 per time point).

O=C([O-])CN1CCN(CC(=O)[O-])CCN(CC(=O)NCCCCC(=O)N(CCCC[C@H](NC(=O)N[C@@H](CCC(=O)O)C(=O)O)C(=O)O)Cc2ccc([125I])cc2)CCN(CC(=O)[O-])CC1.[Lu+3] [[^125I]VK-02-90-Lu]
retention of radioactivity, lacrimal glands (LG) ([1]; 1h, no co-injection): 4.1±1.3 % ID/g | retention of radioactivity, salivary glands (SG) ([1]; 1h, no co-injection): 1.0±0.3 % ID/g | retention of radioactivity, kidneys (K) ([1]; 4 h, no co-injection): 18.2±4.9 % ID/g | retention of radioactivity, kidneys (K) ([1]; 24 h, no co-injection): 3.3±1.1 % ID/g | Stomach uptake ([1]; @ 1 h): 1.8±0.2 % ID/g | retention, K ([1]; @1 h, co-injection of DCIBzL): 4.2±1.3 % ID/g | retention, LG ([1]; @1 h, co-injection of DCIBzL): 0.5±0.1 % ID/g | retention, SG ([1]; @1 h, co-injection of DCIBzL): 3.2±0.7 % ID/g | Stomach uptake ([1]; @ 4 h): 0.8±0.5 % ID/g | Stomach uptake ([1]; @ 24 h): 0.1±0.04 % ID/g | Biodistribution, Blood ([2]; 1 H): 1.2 ± 0.4 % injected dose/g | Biodistribution, Flu tumor ([2]; 1 H): 0.9 ± 0.3 % injected dose/g | Biodistribution, Kidneys ([2]; 1 H): 180 ± 36 % injected dose/g | Biodistribution, Lacrimal glands ([2]; 1 H): 4.1 ± 1.3 % injected dose/g | Biodistribution, Pip (tumor) ([2]; 1 H): 51 ± 8.5 % injected dose/g | Biodistribution, Salivary glands ([2]; 1 H): 1.0 ± 0.3 % injected dose/g | Biodistribution, Spleen ([2]; 1 H): 7.4 ± 2.6 % injected dose/g | Biodistribution, Stomach ([2]; 1 H): 0.7 ± 0.4 % injected dose/g | Biodistribution, Blood ([2]; 4 H): 0.06 ± 0.06 % injected dose/g | Biodistribution, Flu tumor ([2]; 4 H): 0.3 ± 0.5 % injected dose/g | Biodistribution, Kidneys ([2]; 4 H): 18.2 ± 4.9 % injected dose/g | Biodistribution, Lacrimal glands ([2]; 4 H): 0.3 ± 0.1 % injected dose/g | Biodistribution, Pip (tumor) ([2]; 4 H): 27.8 ± 17 % injected dose/g | Biodistribution, Salivary glands ([2]; 4 H): 0.1 ± 0.05 % injected dose/g | Biodistribution, Spleen ([2]; 4 H): 0.6 ± 0.2 % injected dose/g | Biodistribution, Stomach ([2]; 4 H): 0.1 ± 0.1 % injected dose/g | Biodistribution, Blood ([2]; 24 H): 0.1 ± 0.01 % injected dose/g | Biodistribution, Flu tumor ([2]; 24 H): 0.03 ± 0.01 % injected dose/g | Biodistribution, Kidneys ([2]; 24 H): 3.3 ± 1.1 % injected dose/g | Biodistribution, Lacrimal glands ([2]; 24 H): 0.06 ± 0.03 % injected dose/g | Biodistribution, Pip (tumor) ([2]; 24 H): 24.0 ± 6.2 % injected dose/g | Biodistribution, Salivary glands ([2]; 24 H): 0.03 ± 0.01 % injected dose/g | Biodistribution, Spleen ([2]; 24 H): 0.1 ± 0.06 % injected dose/g | Biodistribution, Stomach ([2]; 24 H): 0.04 ± 0.01 % injected dose/g | clearance from the spleen, salivary glands, lacrimal glands and kidneys ([2]; compared with [^125I]VK-02-90): faster clearance
